Results taken from patent publication US20220273754A1, “SS-31 FOR THE PREVENTION AND/OR TREATMENT OF ANEURYSM” (FUNDACIÓ INSTITUT DE RECERCA DE L'HOSPITAL DE LA SANTA CREU …, priority 2019, published 2022).
Non-standard residues stand in square brackets, D forms with d. No end group written: not given here.

Tests used:
diabetic rats = conditions: cited from earlier work; for body weight: diabetic rats; for lipid metabolism: rat, in vivo
[1] = tested on: ApoE−/− mice infused with Ang II; assay: Survival of Ang II-infused ApoE−/− mice; assay type: in vivo; conditions: 3 mg/kg/day with Ang II 1000 ng/kg/min by osmotic minipump, 28 days
Method: (§1) The studies were developed in ApoE^−/− mice bred in the facility. The animals were infused with Ang II dissolved in saline (1000 ng/kg/min) by means of osmotic minipumps (model 1004, Alzet) implanted subcutaneously in the interscapular space of the mice previous anesthesia with isoflurane. The procedure lasted approximately 15 minutes per animal. Immediately after surgery, antibiotics (penicillin, 22,000 u/Kg, i.m.) and analgesics (buprenorphine 0.05 mg/Kg, i.m.) were administered to prevent infections and limit discomfort in the animals. Further, mice were kept on a heating pad until they woke up after surgery and were carefully monitored during the post-surgery period.
(§2) A group of mice infused with Ang II were treated with SS-31 in the form of chloride and dissolved in saline (3 mg/kg/day). Another group of animals infused with Ang II were treated with the SS-20 peptide also in the form of chloride, dissolved in saline and at the same dose. Both were administered together with Ang II by osmotic mini pump during the whole study (28 days). The control group consisted of ApoE^−/− mice infused with saline.

[2] = tested on: abdominal aorta of ApoE−/− mice infused with Ang II; assay: Histology (Masson's trichrome, orcein) of abdominal aorta of Ang II-infused ApoE−/− mice; assay type: in vivo; conditions: 3 mg/kg/day with Ang II 1000 ng/kg/min, 28 days
Method: as §1, §2
(§3) After 4 weeks, the animals were euthanized under intraperitoneal terminal anesthesia with a mixture of medetomidine (1 mg/kg) and ketamine (75 mg/kg) in saline (final volume of 200 μl), the aortas were collected immediately, examined to determine the presence of aneurysms and fixed in paraformaldehyde or frozen in liquid nitrogen for subsequent RNA extraction.

MMP9 = MMP9 mRNA by real-time PCR in abdominal aorta of Ang II-infused ApoE−/− mice; assay type: in vivo; conditions: 3 mg/kg/day with Ang II 1000 ng/kg/min, 28 days; normalized to GAPDH
Method: as §1
as §2, with “saline. […]” for “saline.”
(§4) The expression levels (mRNA) of the metalloproteinases MMP2 and MMP9 in the abdominal aortas of the different study groups were also analyzed. […]

[3] = tested on: renal mitochondrial respiration; conditions: after ischemia; cited from earlier work
[4] = tested on: ApoE−/− mice infused with Ang II; assay: Aortic diameter and aneurysm incidence by ultrasonography in Ang II-infused ApoE−/− mice; assay type: in vivo; conditions: 28 days; for aortic diameter: 3 mg/kg/day with Ang II 1000 ng/kg/min by osmotic minipump, ultrasonography and macroscopic visualization; for incidence of AAA: 3 mg/kg/day with Ang II 1000 ng/kg/min, aneurysmal = external diameter >= 1.5 mm
Method: as §1, §2
The diameter of the aorta was evaluated weekly by abdominal echography using an ultrasound equipment (Vevo2100 Imaging systems; Visualsonics) with a 30 MHz transducer. The mice were anesthetized by inhalation of 1.5% isofluorane and secured in supine position on a thermal platform. After shaving the precord region, the transducer was applied to the abdominal wall to measure the abdominal aorta. Those abdominal aortas with external diameters greater than or equal to 1.5 mm were considered aneurysmal. All measurements were made from the captured images using the analysis software provided by Visualsonics.
as §3

[5] = tested on: mitochondrial swelling and cytochrome c release; conditions: cited from earlier work
[6] = tested on: humans and rodents maintained on a high fat diet; conditions: cited from earlier work
[7] = tested on: angiotensin II (AngII)-induced cardiac hypertrophy; conditions: in vivo; cited from earlier work
MMP2 = MMP2 mRNA by real-time PCR in abdominal aorta of Ang II-infused ApoE−/− mice; assay type: in vivo; conditions: 3 mg/kg/day with Ang II 1000 ng/kg/min, 28 days; normalized to GAPDH
Method: as §1
as §2, with “saline. […]” for “saline.”
as §4

[8] = tested on: reactive oxygen species (ROS) production and lipid peroxidation; conditions: direct inhibition; cited from earlier work
[9] = tested on: myocardial contractile force during ischemia-reperfusion; conditions: SS-20 given after ischemia; cited from earlier work
[10] = tested on: mitochondrial permeability transition; conditions: cited from earlier work

| Substance | body weight (diabetic rats) | lipid metabolism (diabetic rats) | survival rate [1] | disorganization and rupture of elastic fibers (orcein staining) [2] | vascular remodeling: collagen deposition (Masson's trichrome) [2] | aortic MMP9 expression (mRNA) (MMP9) | renal mitochondrial respiration [3] | aortic diameter [4] | incidence of AAA [4] | mitochondrial swelling and cytochrome c release [5] | insulin resistance [6] | AngII-induced cardiac hypertrophy, fibrosis and diastolic dysfunction [7] | aortic MMP2 expression (mRNA) (MMP2) | ROS production and lipid peroxidation [8] | protection of myocardial contractile force [9] | mitochondrial permeability transition [10] |
| --- | --- | --- | --- | --- | --- | --- | --- | --- | --- | --- | --- | --- | --- | --- | --- | --- |
| D-Arg-2′,6′-dimethyltyrosine-Lys-Phe-NH2 [SS-31] | useful in reducing body weight | beneficial effects on lipid metabolism | significantly improved the survival rate | limited the disorganization and rupture of elastic fibers | attenuated by treatment with SS-31 | attenuated this effect | significantly improved renal mitochondrial respiration | reduced the increase in aortic diameter significantly | significantly decreased the incidence of AAA | inhibits mitochondrial swelling and cytochrome c release | attenuates insulin resistance | ameliorates | attenuated this effect | directly inhibit reactive oxygen species (ROS) production and lipid peroxidation | protects myocardial contractile force | inhibits mitochondrial permeability transition |
| F[dR]FK-NH2 [SS-20] | useful in reducing body weight | beneficial effects on lipid metabolism | did not modify the survival rate | not observed in animals treated with SS-20 | not by treatment with SS-20 | did not modify the increase in the mRNA level | significantly improved renal mitochondrial respiration | could not attenuate this increase in the aortic diameter | did not alter the aortic diameter nor the incidence of aneurysms | – | – | – | did not modify the increase in the mRNA level | only SS-31 was demonstrated to directly inhibit | offered no protection | inhibits mitochondrial permeability transition |
